Holding throughout (format): in vivo
The subject of assay [1] is Puccinia triticina. Nature of the assay: Wheat Brown Rust fungicidal activity (PUCCRT). Particulars: Puccinia triticina; for pest or weed control at 100 ppm: rate 100 ppm; for pest or weed control at 121.5 g/ha: rate 121.5 g/H. In a few lines: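 Yuma wheat seedlings at first-leaf stage sprayed to run-off (acetone solution in water with 110 ppm Triton X-100) or track-sprayed as EC with 0.1% Trycol 5941; inoculated with P. triticina spores before or after treatment. Overnight dark dew at 22° C., then greenhouse 24° C.; disease severity 0–100% gives percent control vs untreated.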

Assay [2] concerns Cercospora beticola. As to the kind of experiment: Leaf Spot of Sugar Beets fungicidal activity (CERCBE). The note with it: 24 h, 1 Day Protectant, sugar beet, read-out: Disease Control CERCBE 1DP. The procedure: Technical grades of materials were dissolved in acetone, which were then mixed with nine volumes of water containing 110 ppm Triton X-100. The fungicide solutions were applied onto wheat seedlings using an automated booth sprayer to run-off. All sprayed plants were allowed to air dry prior to further handling. All fungicides were evaluated using the aforementioned method for their activity vs. all target diseases. Wheat leaf blotch and brown rust activity were also evaluated using track spray applications, in which case the fungicides were formulated as EC formulations, containing 0.1% Trycol 5941 in the spray solutions. Wheat plants (variety Yuma) were grown from seed in a greenhouse in 50% mineral soil/50% soil-less Metro mix until the first leaf was fully emerged, with 7-10 seedlings per pot. These plants were inoculated with an aqueous spore suspension of Septoria tritici either prior to or after fungicide treatments. After inoculation the plants were kept in 100% relative humidity (one day in a dark dew chamber followed by two to three days in a lighted dew chamber at 20° C.) to permit spores to germinate and infect the leaf. The plants were then transferred to a greenhouse set at 20° C. for disease to develop. When disease symptoms were fully expressed on the 1st leaves of untreated plants, infection levels were assessed on a scale of 0 to 100 percent disease severity. Percent disease control was calculated using the ratio of disease severity on treated plants relative to untreated plants. Evaluation of Fungicidal Activity: Leaf Spot of Sugar Beets (Cercospora beticola; Bayer Code CERCBE) Sugar beet plants (variety HH88) were grown in soil-less Metro mix and trimmed regularly to maintain a uniform plant size prior to test. Plants were inoculated with a spore suspension 24 hr after fungicide treatments. Inoculated plants were kept in a dew chamber at 22° C. for 48 hr then incubated in a greenhouse set at 24° C. under a clear plastic hood with bottom ventilation until disease symptoms were fully expressed. Fungicide formulation, application and disease assessment on the sprayed leaves followed the procedures as described in the Example A.

Assay [3] relates to Alternaria solani. As to the kind of experiment: Tomato Early Blight fungicidal activity (ALTESO). The note with it: 24 h, 1 Day Protectant, read-out: Disease Control ALTESO 1DP. The procedure:
Technical grades of materials were dissolved in acetone, which were then mixed with nine volumes of water containing 110 ppm Triton X-100. The fungicide solutions were applied onto wheat seedlings using an automated booth sprayer to run-off. All sprayed plants were allowed to air dry prior to further handling. All fungicides were evaluated using the aforementioned method for their activity vs. all target diseases. Wheat leaf blotch and brown rust activity were also evaluated using track spray applications, in which case the fungicides were formulated as EC formulations, containing 0.1% Trycol 5941 in the spray solutions. Wheat plants (variety Yuma) were grown from seed in a greenhouse in 50% mineral soil/50% soil-less Metro mix until the first leaf was fully emerged, with 7-10 seedlings per pot. These plants were inoculated with an aqueous spore suspension of Septoria tritici either prior to or after fungicide treatments. After inoculation the plants were kept in 100% relative humidity (one day in a dark dew chamber followed by two to three days in a lighted dew chamber at 20° C.) to permit spores to germinate and infect the leaf. The plants were then transferred to a greenhouse set at 20° C. for disease to develop. When disease symptoms were fully expressed on the 1st leaves of untreated plants, infection levels were assessed on a scale of 0 to 100 percent disease severity. Percent disease control was calculated using the ratio of disease severity on treated plants relative to untreated plants. Evaluation of Fungicidal Activity: Tomato Early Blight (Alternaria solani; Bayer Code […]) Tomato plants (variety Outdoor girl) were propagated in soil-less Metro mix, with each pot having one plant, and used when 12 to 14 days old. Test plants were inoculated with an aqueous spore suspension of Alternaria solani 24 hr after fungicide treatments. After inoculation the plants were kept in 100% relative humidity (one day in a dark dew chamber followed by two to three days in a lighted dew chamber at 20° C.) to permit spores to germinate and infect the leaf. The plants were then transferred to a growth room at 22° C. for disease to develop. Fungicide formulation, application and disease assessment on the sprayed leaves followed the procedures as described in the Example A.

Setting [4] is: 24 h, 1 Day Protectant, read-out: Disease control PUCCRT 1DP.
[5] abbreviates: 72 h, 3 Day Curative, read-out: Disease control PUCCRT 3DC.

Like-named read-outs stand apart in the source and are kept apart here.

Turning to `COc1ccnc(C(=O)N[C@H]2COC[C@H](CC(F)(F)F)[C@@H](OC3CCCC3)[C@H](C)OC2=O)c1OCOC(C)=O` [Compound F105], the pest or weed control at 100 ppm in assay [1] (setting [4]) was 80 to 100%; in assay [1] (setting [5]) it was 80 to 100%; in assay [2], 80 to 100%; in assay [3], 0 to 80%. In addition, the pest or weed control at 121.5 g/ha in assay [1] (setting [4]) and in assay [1] (setting [5]) was 80 to 100% throughout.
Regarding `COc1ccnc(C(=O)N[C@H]2COC[C@H](CCc3ccccc3)[C@@H](OCC(C)C)[C@H](C)OC2=O)c1OCOC(C)=O` [Compound F82], the pest or weed control at 100 ppm in assay [1] (setting [4]) fell in the range of 80 to 100%; in assay [1] (setting [5]), 80 to 100%; in assay [2], 0 to 80%; in assay [3], 0 to 80%. Also, the pest or weed control at 121.5 g/ha in assay [1] (setting [4]) and in assay [1] (setting [5]) was 80 to 100% each time.
For the compound `COc1ccnc(C(=O)N[C@H]2COC[C@H](Cc3ccc(C)cc3)[C@@H](OCC(C)C)[C@H](C)OC2=O)c1OCOC(C)=O` [Compound F117], the pest or weed control at 100 ppm in assay [1] (setting [4]), in assay [1] (setting [5]), in assay [2] and in assay [3] was 80 to 100% in each case. Besides, the pest or weed control at 121.5 g/ha in assay [1] (setting [4]) and in assay [1] (setting [5]) was 80 to 100% throughout.
Take `COc1ccnc(C(=O)N[C@H]2COC[C@H](Cc3ccc(Cl)cc3Cl)[C@@H](OC(=O)C(C)C)[C@H](C)OC2=O)c1OC(C)=O` [Compound F73]: the pest or weed control at 100 ppm was in the range of 80 to 100% in assay [1] (setting [4]), 80 to 100% in assay [1] (setting [5]), 80 to 100% in assay [2] and 0 to 80% in assay [3]. In addition, the pest or weed control at 121.5 g/ha in assay [1] (setting [4]) is 80 to 100%; in assay [1] (setting [5]), 0 to 80%.
For `COc1ccnc(C(=O)N[C@H]2COC[C@H](CC3CCCC3)[C@@H](OC(=O)C(C)C)[C@H](C)OC2=O)c1OCOC(C)=O` [Compound F114], the pest or weed control at 100 ppm in assay [1] (setting [4]), in assay [1] (setting [5]), in assay [2] and in assay [3] was 80 to 100% throughout. In addition, the pest or weed control at 121.5 g/ha in assay [1] (setting [4]) and in assay [1] (setting [5]) was 80 to 100% each time.
For the compound `COc1ccnc(C(=O)N[C@H]2COC[C@H](Cc3ccc(C)cc3)[C@@H](OCC(C)C)[C@H](C)OC2=O)c1OC(C)=O` [Compound F80], the pest or weed control at 100 ppm in assay [1] (setting [4]), in assay [1] (setting [5]), in assay [2] and in assay [3] was 80 to 100% in each case. In addition, the pest or weed control at 121.5 g/ha in assay [1] (setting [4]) and in assay [1] (setting [5]) was 80 to 100% throughout.
On to `COc1ccnc(C(=O)N[C@H]2COC[C@H](Cc3ccc(Cl)cc3Cl)[C@@H](OC(=O)C(C)C)[C@H](C)OC2=O)c1OCOC(C)=O` [Compound F110], for which the pest or weed control at 100 ppm in assay [1] (setting [4]), in assay [1] (setting [5]), in assay [2] and in assay [3] was 80 to 100% each time. Also, the pest or weed control at 121.5 g/ha in assay [1] (setting [4]) was in the range of 80 to 100%; in assay [1] (setting [5]) it was 0 to 80%.
For the compound `COc1ccnc(C(=O)N[C@H]2COC[C@H](Cc3ccc(F)cc3)[C@@H](OCC(C)C)[C@H](C)OC2=O)c1OCOC(C)=O` [Compound F96], the pest or weed control at 100 ppm in assay [1] (setting [4]), in assay [1] (setting [5]), in assay [2] and in assay [3] was 80 to 100% in each case. Also, the pest or weed control at 121.5 g/ha in assay [1] (setting [4]) and in assay [1] (setting [5]) was 80 to 100% in each case.
Turning to `COc1ccnc(C(=O)N[C@H]2COC[C@H](CCC(C)C)[C@@H](OCCCC(F)(F)F)[C@H](C)OC2=O)c1OCOC(C)=O` [Compound F107], the pest or weed control at 100 ppm in assay [1] (setting [4]), in assay [1] (setting [5]), in assay [2] and in assay [3] was 80 to 100% throughout. The pest or weed control at 121.5 g/ha in assay [1] (setting [4]) and in assay [1] (setting [5]) was 80 to 100% in each case.
`CCCCCO[C@@H]1[C@@H](Cc2ccc(Cl)cc2Cl)COC[C@H](NC(=O)c2nccc(OC)c2OCOC(=O)COCC)C(=O)O[C@H]1C` [Compound F122]: the pest or weed control at 121.5 g/ha in assay [1] (setting [4]) was 80 to 100%; in assay [1] (setting [5]), 0 to 80%. Also, the pest or weed control at 100 ppm in assay [2] and in assay [3] was 80 to 100% throughout.
With `CCCCCO[C@@H]1[C@@H](Cc2ccc(Cl)cc2Cl)COC[C@H](NC(=O)c2nccc(OC)c2OC(=O)CCOC)C(=O)O[C@H]1C` [Compound F123], in assay [1] (setting [4]), the pest or weed control at 121.5 g/ha lay in the range of 80 to 100%. Besides, the pest or weed control at 100 ppm in assay [2] and in assay [3] was 80 to 100% each time.
Consider `COc1ccnc(C(=O)N[C@H]2COC[C@H](CCC(C)C)[C@@H](OC(=O)C3CC3)[C@H](C)OC2=O)c1OCOC(C)=O` [Compound F108], for which the pest or weed control at 100 ppm in assay [1] (setting [4]), in assay [1] (setting [5]), in assay [2] and in assay [3] was 80 to 100% in each case. Moreover, the pest or weed control at 121.5 g/ha in assay [1] (setting [4]) and in assay [1] (setting [5]) was 80 to 100% in each case.
Turning to `COc1ccnc(C(=O)N[C@H]2COC[C@H](Cc3ccc(F)cc3)[C@@H](OCC(C)C)[C@H](C)OC2=O)c1OC(C)=O` [Compound F60], the pest or weed control at 100 ppm in assay [1] (setting [4]), in assay [1] (setting [5]) and in assay [2] was 80 to 100% each time. The pest or weed control at 121.5 g/ha in assay [1] (setting [4]) and in assay [1] (setting [5]) was 80 to 100% in each case.
Regarding `COc1ccnc(C(=O)N[C@H]2COC[C@H](Cc3cccc4ccccc34)[C@@H](OC(=O)C(C)C)[C@H](C)OC2=O)c1OCOC(C)=O` [Compound F83, (3S,6S,7R,8S)-3-(3-(acetoxymethoxy)-4-methoxypicolin-amido)-6-methyl-8-(naphthalen-1-ylmethyl)-4-oxo-1,5-dioxonan-7-yl isobutyrate], the pest or weed control at 100 ppm in assay [1] (setting [4]), in assay [1] (setting [5]) and in assay [2] was 80 to 100% in each case. Besides, the pest or weed control at 121.5 g/ha in assay [1] (setting [4]) lay in the range of 80 to 100%; in assay [1] (setting [5]) it was 0 to 80%.
